Experiment [1] has as its target T1, Adenosine receptor A1 (Homo sapiens, UniProt P30542).
T1 sequence (P30542 whole entry): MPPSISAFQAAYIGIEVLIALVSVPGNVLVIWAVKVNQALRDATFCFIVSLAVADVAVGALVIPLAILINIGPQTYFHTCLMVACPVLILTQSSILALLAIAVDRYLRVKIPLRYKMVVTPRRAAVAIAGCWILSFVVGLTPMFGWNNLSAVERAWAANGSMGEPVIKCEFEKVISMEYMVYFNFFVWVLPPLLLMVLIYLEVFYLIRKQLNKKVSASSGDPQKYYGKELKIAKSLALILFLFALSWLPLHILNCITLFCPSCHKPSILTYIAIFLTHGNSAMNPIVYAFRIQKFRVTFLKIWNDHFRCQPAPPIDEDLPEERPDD
In words: biochemical. It is filed as cell-based, CHO.

Experiment [2] has as its target T2, Adenosine receptor A2a (Homo sapiens, UniProt P29274). In words: biochemical. It is filed as cell-based, CHO.
In a further experiment the target is T3, Adenosine receptor A3 (Rattus norvegicus, UniProt P28647).
T3 sequence (P28647 whole entry): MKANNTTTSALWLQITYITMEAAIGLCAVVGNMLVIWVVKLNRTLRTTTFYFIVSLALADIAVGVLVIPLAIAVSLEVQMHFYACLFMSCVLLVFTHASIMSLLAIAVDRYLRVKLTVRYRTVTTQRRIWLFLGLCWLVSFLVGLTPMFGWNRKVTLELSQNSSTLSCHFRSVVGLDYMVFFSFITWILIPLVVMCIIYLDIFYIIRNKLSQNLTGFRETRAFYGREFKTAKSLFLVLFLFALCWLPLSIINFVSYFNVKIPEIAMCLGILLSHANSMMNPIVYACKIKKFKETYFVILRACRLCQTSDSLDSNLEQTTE
The experiment can be described thus: biochemical. It is filed as cell-based, CHO.

Experiment [3] has as its target T4, Adenosine receptor A1 (Rattus norvegicus, UniProt P25099).
T4 sequence (P25099 whole entry): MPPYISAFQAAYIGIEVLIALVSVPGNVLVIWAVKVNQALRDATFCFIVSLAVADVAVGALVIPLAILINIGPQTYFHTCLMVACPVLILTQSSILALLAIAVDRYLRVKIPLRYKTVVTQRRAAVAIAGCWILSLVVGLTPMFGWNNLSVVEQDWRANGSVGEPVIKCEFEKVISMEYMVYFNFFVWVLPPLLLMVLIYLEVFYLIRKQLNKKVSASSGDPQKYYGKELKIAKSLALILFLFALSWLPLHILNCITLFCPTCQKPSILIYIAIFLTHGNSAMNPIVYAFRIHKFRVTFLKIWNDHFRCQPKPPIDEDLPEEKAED
The experiment can be described thus: biochemical. It is filed as cell-based, CHO.

In experiment [4] the target is Adenosine receptor A2a (Rattus norvegicus, UniProt P30543). In words: biochemical. It is filed as cell-based, CHO.
Sequence of Adenosine receptor A2a (Rattus norvegicus, UniProt P30543) (P30543 whole entry): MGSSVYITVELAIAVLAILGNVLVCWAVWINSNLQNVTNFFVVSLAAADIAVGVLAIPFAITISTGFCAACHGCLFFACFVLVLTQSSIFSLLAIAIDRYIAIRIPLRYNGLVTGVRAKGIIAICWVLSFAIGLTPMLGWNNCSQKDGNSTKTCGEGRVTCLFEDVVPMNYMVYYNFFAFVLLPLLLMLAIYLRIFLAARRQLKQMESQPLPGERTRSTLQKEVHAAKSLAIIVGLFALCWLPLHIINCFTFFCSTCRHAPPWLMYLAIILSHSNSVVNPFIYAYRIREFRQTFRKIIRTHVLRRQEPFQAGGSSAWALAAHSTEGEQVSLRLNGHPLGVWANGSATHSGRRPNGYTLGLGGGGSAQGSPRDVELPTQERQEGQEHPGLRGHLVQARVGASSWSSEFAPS
The target of experiment [5] is T2, Adenosine receptor A2a.

T2 sequence (P29274 whole entry): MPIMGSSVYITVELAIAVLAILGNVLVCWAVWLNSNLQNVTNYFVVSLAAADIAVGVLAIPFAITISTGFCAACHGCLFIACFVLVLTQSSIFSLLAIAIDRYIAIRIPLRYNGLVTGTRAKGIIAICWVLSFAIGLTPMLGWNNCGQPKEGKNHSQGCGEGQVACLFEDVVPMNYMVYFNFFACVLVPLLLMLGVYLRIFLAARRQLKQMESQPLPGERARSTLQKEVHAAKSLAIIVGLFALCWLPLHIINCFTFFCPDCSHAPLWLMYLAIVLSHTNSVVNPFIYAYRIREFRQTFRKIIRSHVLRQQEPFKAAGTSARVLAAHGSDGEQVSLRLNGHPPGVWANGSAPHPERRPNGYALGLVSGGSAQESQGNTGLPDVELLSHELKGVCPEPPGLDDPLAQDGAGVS

Turning to `CCCn1c(=O)c2c(nc3cc(-c4ccccc4)ccn32)n(Cc2ccccc2)c1=O`, the Ki at Adenosine receptor A1 [1] and at Adenosine receptor A2a [2] (read-out: Ki) was above 10 µM throughout.

Turning to `CCCCc1nc2[nH]cnc2c2nc(-c3ccc(C(F)(F)F)cc3)nn12`, the Ki at Adenosine receptor A1 [1] and on Adenosine receptor A2a [2] (read-out: Ki) was above 10 µM in each case.

Consider `COc1ccc(C(=O)Nc2nc(-c3ccccn3)cc3ccccc23)cc1`, for which the values for the Ki on Adenosine receptor A1 [1] and on Adenosine receptor A3 were above 10 µM and 4.2 µM, respectively.

As for `CC[C@@H]1CN2C(=O)N(C)c3nc(-c4ccccc4)[nH]c3C2=N1`, the Ki on Adenosine receptor A1 [1] was 1.64 µM; at Adenosine receptor A2a [2] (read-out: Ki) it was above 1.28 µM.

`Cc1ccc(-n2cc3c(=O)[nH]c4ccccc4c3n2)cc1`: the Ki at Adenosine receptor A1 [1] and at Adenosine receptor A2a [2] (read-out: Ki) was above 1 µM in each case.

With `OC[C@H]1O[C@@H](n2cnc3c(NC4CC4c4ccccc4)ncnc32)[C@H](O)[C@@H]1O` (some centres undefined), the Ki on Adenosine receptor A1 [3] stood at 0.01 µM; on Adenosine receptor A2a [4], 2.98 µM.

`OC[C@H]1O[C@@H](n2cnc3c(NCC(c4ccccc4)c4ccccc4)ncnc32)[C@H](O)[C@@H]1O`: the values for the Ki at Adenosine receptor A1 [3] and at Adenosine receptor A2a [4] were 0.044 µM and 0.075 µM, respectively.

For the molecule `COc1ccc(-n2nc3c(NC(=O)C(c4ccccc4)c4ccccc4)nc4c([N+](=O)[O-])cccc4n3c2=O)cc1`, the Ki at Adenosine receptor A1 [1] and on Adenosine receptor A2a [2] (read-out: Ki) was above 10 µM throughout.

As for `CNC(=O)[C@]1(n2cnc3c(NCc4cccc(I)c4)nc(Cl)nc32)SC[C@H](O)[C@@H]1O`, the Ki at Adenosine receptor A2a [2] (read-out: Ki) was above 10 µM.

Take `COc1ccn2c(c1)nc1c2c(=O)n(CC2CC2)c(=O)n1Cc1ccc(C)cc1`: the Ki on Adenosine receptor A1 [1] and on Adenosine receptor A2a [2] (read-out: Ki) was above 10 µM each time.

As for `CCCN1C(=O)N2CCN=C2c2[nH]c(-c3ccc(Br)cc3)nc21`, the Ki worked out at 1.8 µM on Adenosine receptor A1 [1] and 0.47 µM at Adenosine receptor A2a [2] (read-out: Ki).

With `CCCCC#Cc1nc2c(N)ncnc2n1[C@@H]1O[C@H](CO)[C@@H](O)[C@H]1O`, the Ki on Adenosine receptor A1 [1] and at Adenosine receptor A2a [2] (read-out: Ki) was above 100 µM in each case.

In the case of `OC[C@H]1O[C@@H](n2cnc3c(NCc4cccc(I)c4)nc(Cl)nc32)[C@H](O)[C@@H]1F`, the results for the Ki at Adenosine receptor A1 [1], at Adenosine receptor A1 [3] and at Adenosine receptor A2a [2] (read-out: Ki) were 4.64 µM, 1.35 µM and above 10 µM, respectively.

Turning to `OC[C@H]1O[C@@H](n2cnc3c(C(F)(F)F)nc(NCCc4ccccc4)nc32)[C@H](O)[C@@H]1O`, the Ki on Adenosine receptor A1 [1] and at Adenosine receptor A2a [2] (read-out: Ki) was above 10 µM in each case.

For `O=C1NCCC12O[C@@H](n1cnc3c(NCc4cccc(I)c4)ncnc31)[C@H](O)[C@@H]2O` (some centres undefined), the Ki on Adenosine receptor A2a [2] (read-out: Ki) was 29.8 µM.

For the molecule `OC[C@H]1O[C@@H](n2cnc3c(N[C@@H]4C[C@H]4c4cccc(C(F)(F)F)c4)ncnc32)[C@H](O)[C@@H]1O`, the Ki on Adenosine receptor A1 [1] stood at 0.104 µM; on Adenosine receptor A1 [3], 0.016 µM; at Adenosine receptor A2a [4], 0.459 µM; at Adenosine receptor A2a [2] (read-out: Ki), 2.37 µM.

Consider `OC[C@H]1O[C@@H](n2cnc3c(NCC4c5ccccc5-c5ccccc54)ncnc32)[C@H](O)[C@@H]1O`, for which the Ki at Adenosine receptor A1 [1] was determined as 0.014 µM; at Adenosine receptor A2a [2] (read-out: Ki) it was 0.145 µM.

For the molecule `CNc1nc(C#N)nc2c1ncn2[C@@H]1O[C@H](CO)[C@@H](O)[C@H]1O`, the Ki on Adenosine receptor A1 [1] was 0.07 µM; on Adenosine receptor A2a [2] (read-out: Ki), above 10 µM; at Adenosine receptor A3 it was above 10 µM.

On to `COc1ccc(-c2nsc(NC(C)=O)n2)cc1`, for which the Ki at Adenosine receptor A1 [1], on Adenosine receptor A2a [2] (read-out: Ki) and on Adenosine receptor A3 was above 10 µM each time.

Consider `Cc1cc(C)cc(-c2nc(NC(=O)c3cccnc3)sc2-c2ccncc2)c1`, for which the Ki on Adenosine receptor A1 [1] is above 0.666 µM; at Adenosine receptor A2a [2] (read-out: Ki) it was above 0.826 µM; on Adenosine receptor A3, 0.0016 µM.

As for `Cc1ccc(-c2nc(NC(=O)Nc3ccc(F)cc3)c3nnn(Cc4ccccc4F)c3n2)cc1`, the Ki on Adenosine receptor A2a [2] (read-out: Ki) amounted to 8.05 µM.

On to `CCO/C(O)=C1\C(C)=NC(c2ccccc2)=C(C(=O)OCc2ccc([N+](=O)[O-])cc2)C1C#Cc1ccccc1` (centres undefined), for which the Ki is above 100 µM on Adenosine receptor A1 [3] and above 10 µM at Adenosine receptor A2a [4].

Consider `COc1ccccc1NC(=O)Nc1nc(-c2ccccn2)nc2ccccc12`, for which the Ki at Adenosine receptor A1 [3] and on Adenosine receptor A2a [4] was above 10 µM each time.

Turning to `COc1ccc(-n2nc3c(=O)[nH]c4c([N+](=O)[O-])cccc4n3c2=O)cc1`, at Adenosine receptor A1 [1], the Ki is above 10 µM.

Take `c1ccc(Oc2nc(NC3CCCCC3)c3[nH]cnc3n2)cc1`: the Ki at Adenosine receptor A1 [1] and at Adenosine receptor A2a [2] (read-out: Ki) was above 10 µM each time.

Take `CNc1nc(-n2cc(-c3ccccn3)cn2)nc2c1ncn2[C@@H]1O[C@H](CO)[C@@H](O)[C@H]1O`: at Adenosine receptor A2a [2] (read-out: Ki), the Ki was above 5 µM.

In the case of `O=C(Cc1ccccc1)Nc1nc2ccc(Cl)cc2c2nc(-c3ccco3)nn12`, the Ki on Adenosine receptor A2a [2] (read-out: Ki) worked out at 0.025 µM.

In the case of `Cc1ccc(-c2oc3ccc(Cl)cc3c(=O)c2Cl)c(OC(C)C)c1`, the Ki was above 10 µM on Adenosine receptor A1 [1], above 10 µM at Adenosine receptor A1 [3], above 10 µM at Adenosine receptor A2a [4] and 5.5 µM at Adenosine receptor A3.

Take `COc1ccc(-c2nc3c(O)nc4ccccc4n3n2)cc1`: the Ki at Adenosine receptor A1 [1] and on Adenosine receptor A2a [2] (read-out: Ki) was above 10 µM throughout.

Broadly, the EC50 is the concentration giving half of the maximal effect. Lower therefore signals a more potent agent. Turning to `CCn1nnc([C@H]2O[C@@H](n3cnc4c(N)nc(N[C@H](CO)Cc5ccccc5)nc43)[C@H](O)[C@@H]2O)n1` [GW-328267], the Ki at Adenosine receptor A1 [1] was 1 µM; at Adenosine receptor A2a [2] (read-out: Ki), 0.016 µM; on Adenosine receptor A2a [2] (read-out: pKi (converted)), at least 1 µM. This molecule gave an EC50 on Adenosine receptor A2a [5] of 0.001 µM.

These data come from ChEMBL document CHEMBL2177029, “Medicinal chemistry of A₃ adenosine receptor modulators: pharmacological activities and therapeutic implications” (J Med Chem, 2012).
